What was measured:
human KHK-C = human KHK-C (Homo sapiens (Human), UniProt P50053); experiment: KHK Biochemical Assay (IC50), ADP-Glo, KHK-C; conditions: average of at least two separate assays
How it was run: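 His-tagged enzyme expressed in BL21 (DE3), Ni-NTA purified. Compounds, serially diluted 1:3 in DMSO, pre-incubated 30 min with enzyme in 50 mM Hepes pH 7.4, 140 mM KCl, 5 mM MgCl2, 0.01% Triton-X, then ATP and fructose added; 4 h at room temperature. ADP formation read by ADP-Glo luminescence.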

[1] = molecular target: KHK-C expressed in NRK-52E cells (Homo sapiens (Human), UniProt P50053); experiment: KHK-C Cell-based Assay (EC50), NRK CTG, fructose-mediated ATP-depletion
KHK-C expressed in NRK-52E cells, sequence (P50053 whole entry): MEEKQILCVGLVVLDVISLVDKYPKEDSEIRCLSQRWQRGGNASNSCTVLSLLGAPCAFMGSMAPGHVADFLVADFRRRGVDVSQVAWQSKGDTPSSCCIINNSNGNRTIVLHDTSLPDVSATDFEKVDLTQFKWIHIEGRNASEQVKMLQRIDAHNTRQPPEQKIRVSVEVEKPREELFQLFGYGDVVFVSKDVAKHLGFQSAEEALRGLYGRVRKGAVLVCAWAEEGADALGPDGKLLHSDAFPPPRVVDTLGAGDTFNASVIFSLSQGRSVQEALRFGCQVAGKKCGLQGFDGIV

human KHK-C, sequence (P50053 whole entry): as above

Row | Compound | IC50 (human KHK-C; ADP-Glo) [nM] | EC50 [1] [nM] | IC50 (human KHK-C) [nM]
1 | C[C@H]1CCN1c1nc2c(c(-c3ccc4cnccc4c3)n1)CCC2 [Example 163, (S)-6-(2-(2-methylazetidin-1-yl)-6,7-dihydro-5H-cyclopenta[d]pyrimidin-4-yl)isoquinoline] | 49 | 251 | 
2 | CC(=O)Nc1cc(-c2nc(N3C[C@@H](O)[C@@H]3C)nc3c2CCC3(F)F)ccc1C(N)=O [Example 181, 2-acetamido-4-(7,7-difluoro-2-((2S,3R)-3-hydroxy-2-methylazetidin-1-yl)-6,7-dihydro-5H-cyclopenta[d]pyrimidin-4-yl)benzamide] | 11 | 579 | 
3 | C[C@@H](NS(C)(=O)=O)c1ccc(-c2nc(N3C[C@@H](O)[C@@H]3C)nc3c2CCC3(F)F)cc1 [Example 740, N-[(1R)-1-[4-[7,7-difluoro-2-[(2S,3R)-3-hydroxy-2-methyl-azetidin-1-yl]-5,6-dihydrocyclopenta[d]pyrimidin-4-yl]phenyl]ethyl]methanesulfonamide] |  | 323 | 40.3
4 | C[C@H]1CCN1c1nc2c(c(-c3cccc(S(C)(=O)=O)c3)n1)CCC2 [Example 399, (S)-2-(2-methylazetidin-1-yl)-4-(3-(methylsulfonyl)phenyl)-6,7-dihydro-5H-cyclopenta[d]pyrimidine] |  | 138 | 74.3
5 | C[C@H]1CCN1c1nc2c(c(-c3cnc(N)nc3)n1)CCC2 [Example 732, (S)-5-(2-(2-methylazetidin-1-yl)-6,7-dihydro-5H-cyclopenta[d]pyrimidin-4-yl)pyrimidin-2-amine] |  | 361 | 87.9
6 | NC(=O)c1ccc(-c2nc(N3CCC34COC4)nc3c2CCC3)cc1 [Example 730, 4-(2-(6-oxa-1-azaspiro[3.3]heptan-1-yl)-6,7-dihydro-5H-cyclopenta[d]pyrimidin-4-yl)benzamide] |  | 5000 | 2390
7 | C[C@H]1[C@H](O)CN1c1nc(-c2ccc3c(c2)CN(S(C)(=O)=O)CC3)c2c(n1)C(F)(F)CC2 [Example 611, (2S,3R)-1-(7,7-difluoro-4-(2-(methylsulfonyl)-1,2,3,4-tetrahydroisoquinolin-7-yl)-6,7-dihydro-5H-cyclopenta[d]pyrimidin-2-yl)-2-methylazetidin-3-ol] |  | 92 | 32
8 | NC(=O)c1ccc(-c2nc(N3Cc4n[nH]cc4C3CO)nc3c2CCC3)cc1 (stereo not drawn) [Example 172, 4-(2-(4-(hydroxymethyl)-2,6-dihydropyrrolo[3,4-c]pyrazol-5(4H)-yl)-6,7-dihydro-5H-cyclopenta[d]pyrimidin-4-yl)benzamide] | > 5000 | > 5000 | 
9 | N#CC1CCN1c1nc(-c2ccc(C(N)=O)cc2)c2c(n1)C(F)(F)CC2 (stereo not drawn) [Example 706, 4-(2-(2-cyanoazetidin-1-yl)-7,7-difluoro-6,7-dihydro-5H-cyclopenta[d]pyrimidin-4-yl)benzamide] |  | 366 | 67.2
10 | C[C@H]1c2ccccc2CN1c1nc2c(c(-c3ccc(C(N)=O)cc3)n1)CCC2 [Example 167, (S)-4-(2-(1-methylisoindolin-2-yl)-6,7-dihydro-5H-cyclopenta[d]pyrimidin-4-yl)benzamide] | > 5000 | > 5000 | 
11 | C[C@@H](NS(C)(=O)=O)c1ccc(-c2nc(N3CC[C@@H]3C)nc3c2CCC3(F)F)cc1 [Example 748, N-[(1R)-1-[4-[7,7-difluoro-2-[(2S)-2-methylazetidin-1-yl]-5,6-dihydrocyclopenta[d]pyrimidin-4-yl]phenyl]ethyl]methanesulfonamide] |  | 85.9 | 23.2
12 | CC12CCC(CC1)N2c1nc2c(c(-c3ccc(C(N)=O)cc3)n1)CCC2 [Example 398, 4-(2-(-1-methyl-7-azabicyclo[2.2.1]heptan-7-yl)-6,7-dihydro-5H-cyclopenta[d]pyrimidin-4-yl)benzamide] |  | > 5000 | > 5000
13 | CS(=O)(=O)c1cccc(-c2nc(N3CCC[C@@H]3C#N)nc3c2CCC3)c1 [Example 713, (R)-1-(4-(3-(methylsulfonyl)phenyl)-6,7-dihydro-5H-cyclopenta[d]pyrimidin-2-yl)pyrrolidine-2-carbonitrile] |  | 4900 | 2340
14 | C[C@H]1CCN1c1nc2c(c(-c3cccc([C@@H]4[C@@H](C(=O)O)C4(C)C)c3)n1)CCC2 [Example 435, (1R,3R)-2,2-dimethyl-3-(3-(2-((S)-2-methylazetidin-1-yl)-6,7-dihydro-5H-cyclopenta[d]pyrimidin-4-yl)phenyl)cyclopropane-1-carboxylic acid] |  | 78.4 | 5.4
15 | C[C@@H]1CCCN1c1nc2c(c(-c3ccc(C(N)=O)cc3)n1)CCC2 [Example 404, (R)-4-(2-(2-methylpyrrolidin-1-yl)-6,7-dihydro-5H-cyclopenta[d]pyrimidin-4-yl)benzamide] |  | > 5000 | > 5000
16 | C[C@@H]1COc2cc(-c3nc(N4C[C@@H](O)[C@@H]4C)nc4c3CCC4(F)F)ccc2C(=O)N1 [Example 180, (R)-8-(7,7-difluoro-2-((2S,3R)-3-hydroxy-2-methylazetidin-1-yl)-6,7-dihydro-5H-cyclopenta[d]pyrimidin-4-yl)-3-methyl-3,4-dihydrobenzo[f][1,4]oxazepin-5(2H)-one] | 27.4 | 177 | 
17 | CC(C)(O)[C@H]1CCN1c1nc2c(c(-c3ccc(C(N)=O)cc3)n1)CCC2 [Example 436, 4-[2-[(2R)-2-(1-hydroxy-1-methyl-ethyl)azetidin-1-yl]-6,7-dihydro-5H-cyclopenta[d]pyrimidin-4-yl]benzamide] |  | 2940 | 2730
18 | C[C@H]1CCN1c1nc2c(c(-c3nccn3C)n1)CCC2 [Example 394, 2-[(2S)-2-methylazetidin-1-yl]-4-(1-methylimidazol-2-yl)-6,7-dihydro-5H-cyclopenta[d]pyrimidine] |  | 785 | 172
19 | C[C@H]1[C@H](O)CN1c1nc2c(c(-c3ccc4c(c3)OCCNC4=O)n1)CCC2 [Example 164, 8-(2-((2S,3R)-3-hydroxy-2-methylazetidin-1-yl)-6,7-dihydro-5H-cyclopenta[d]pyrimidin-4-yl)-3,4-dihydrobenzo[f][1,4]oxazepin-5(2H)-one] | 16.4 | 94.5 | 
20 | CC(C)C[C@H]1C(F)CN1c1nc2c(c(-c3ccc(C(N)=O)cc3)n1)CCC2 (stereo partly drawn) [Example 437, 4-[2-[(2S)-3-fluoro-2-isobutyl-azetidin-1-yl]-6,7-dihydro-5H-cyclopenta[d]pyrimidin-4-yl]benzamide] |  | > 5000 | > 5000
21 | Cc1cc(-c2nc(N3C[C@@H](O)[C@@H]3C)nc3c2CCC3(F)F)ccc1C1(N)COC1 [Example 505, (2S,3R)-1-(4-(4-(3-aminooxetan-3-yl)-3-methylphenyl)-7,7-difluoro-6,7-dihydro-5H-cyclopenta[d]pyrimidin-2-yl)-2-methylazetidin-3-ol] |  | 11.9 | 2.4
22 | C[C@H]1[C@H](O)CN1c1nc(-c2ccc(C(N)=O)c(OC(F)(F)F)c2)c2c(n1)C(F)(F)CC2 [Example 183, 4-(7,7-difluoro-2-((2S,3R)-3-hydroxy-2-methylazetidin-1-yl)-6,7-dihydro-5H-cyclopenta[d]pyrimidin-4-yl)-2-(trifluoromethoxy)benzamide] | 21.3 | 89.1 | 
23 | C[C@H]1CCN1c1nc2c(c(-c3ccc4c(c3)NCCNC4=O)n1)CCC2 [Example 753, 8-[2-[(2S)-2-methylazetidin-1-yl]-6,7-dihydro-5H-cyclopenta[d]pyrimidin-4-yl]-1,2,3,4-tetrahydro-1,4-benzodiazepin-5-one] |  | 33.1 | 10.7
24 | CS(=O)(=O)c1cccc(-c2nc(N3CCC[C@H]3C#N)nc3c2CCC3)c1 [Example 712, (S)-1-(4-(3-(methylsulfonyl)phenyl)-6,7-dihydro-5H-cyclopenta[d]pyrimidin-2-yl)pyrrolidine-2-carbonitrile] |  | > 5000 | > 5000
25 | C[C@H]1[C@H](O)CN1c1nc2c(c(-c3ccc(C(N)=O)cc3)n1)CC(F)(F)CC2 [Example 444, 4-(6,6-difluoro-2-((2S,3R)-3-hydroxy-2-methylazetidin-1-yl)-5,6,7,8-tetrahydroquinazolin-4-yl)benzamide] |  | > 5000 | > 5000
26 | CC1(c2nc3c(c(-c4ccc(C(N)=O)cc4)n2)CCC3)CCC1 [Example 502, 4-(2-(1-methylcyclobutyl)-6,7-dihydro-5H-cyclopenta[d]pyrimidin-4-yl)benzamide] |  | 2000 | 768
27 | C[C@@H](OCc1ccccc1)[C@H]1C(O)CN1c1nc2c(c(-c3ccc(C(N)=O)cc3)n1)CCC2 (stereo partly drawn) [Example 438, 4-[2-[(2R)-2-[(1R)-1-benzyloxyethyl]-3-hydroxy-azetidin-1-yl]-6,7-dihydro-5H-cyclopenta[d]pyrimidin-4-yl]benzamide] |  | > 5000 | > 5000
28 | C[C@@H]1CNC(=O)c2ccc(-c3nc(N4C[C@@H](O)[C@@H]4C)nc4c3CCC4(F)F)cc2O1 [Example 94] | 8.4 | 84.1 | 
29 | C[C@H]1CCN1c1nc(-c2cc(F)c3c(c2)OCCNC3=O)c2c(n1)C(F)(F)CC2 [Example 747, 8-[7,7-difluoro-2-[(2S)-2-methylazetidin-1-yl]-5,6-dihydrocyclopenta[d]pyrimidin-4-yl]-6-fluoro-3,4-dihydro-2H-1,4-benzoxazepin-5-one] |  | 15.1 | 6.1
30 | CN1C(=O)N[C@]2(CCc3cc(-c4nc(N5CC[C@@H]5CF)nc5c4CCC5(F)F)ccc32)C1=O [Example 676, (5S)-5′-[7,7-difluoro-2-[(2R)-2-(fluoromethyl)azetidin-1-yl]-5,6-dihydroeyelopenta[d]pyrimidin-4-yl]-3-methyl-spiro[imidazolidine-5,1′-indane]-2,4-dione] |  | 1.2 | 0.2

Source: US12410160B2 (Gilead Sciences, Inc., priority 2021, dated 2025)
